Cell cycle fraction data for one molecule are collected here from ChEMBL document CHEMBL1130964, “Naphthoquinone analogs as inactivators of cdc25 phosphatase” (1998).

Format in all cases: functional
Assay [1] relates to SK-HEP1. Kind of assay: The compound was evaluated for the percent cell cycle fraction when human hepatoma SK hep-1 cells were treated with the compound for 24 hours at a concentration of 4 uM in the S phase of cell cycle.
The test system of assay [2] is SK-HEP1. Description: The compound was evaluated for the percent cell cycle fraction when human hepatoma SK hep-1 cells were treated with the compound for 12 hours at a concentration of 4 uM in the G1 phase of cell cycle.
Assay [3] has as its system SK-HEP1. Description: The compound was evaluated for the percent cell cycle fraction when human hepatoma SK hep-1 cells were treated with the compound for 12 hours at a concentration of 4 uM in the G2/M phase of cell cycle.
For assay [4], the species on record is Homo sapiens. Kind of assay: The compound was evaluated for the percent cell cycle fraction when human hepatoma SK hep-1 cells were treated with the compound for 0 hr at a concentration of 4 uM in the S phase of cell cycle.
For assay [5], the system named is SK-HEP1. Kind of assay: The compound was evaluated for the percent cell cycle fraction when human hepatoma SK hep-1 cells were treated with the compound for 24 hours at a concentration of 4 uM in the G2/M phase of cell cycle.
The species named for assay [6] is Homo sapiens. Kind of assay: The compound was evaluated for the percent cell cycle fraction when human hepatoma SK hep-1 cells were treated with the compound for 6 hours at a concentration of 4 uM in the G2/M phase of cell cycle.
For assay [7], the species on record is Homo sapiens. Kind of assay: The compound was evaluated for the percent cell cycle fraction when human hepatoma SK hep-1 cells were treated with the compound for 6 hours at a concentration of 4 uM in the G1 phase of cell cycle.
The test system of assay [8] is SK-HEP1. Kind of assay: The compound was evaluated for the percent cell cycle fraction when human hepatoma SK hep-1 cells were treated with the compound for 0 hr at a concentration of 4 uM in the G1 phase of cell cycle.
The species entered for assay [9] is Homo sapiens. Description: The compound was evaluated for the percent cell cycle fraction when human hepatoma SK hep-1 cells were treated with the compound for 24 hours at a concentration of 4 uM in the G1 phase of cell cycle.
The species named for assay [10] is Homo sapiens. Kind of assay: The compound was evaluated for the percent cell cycle fraction when human hepatoma SK hep-1 cells were treated with the compound for 12 hours at a concentration of 4 uM in the S phase of cell cycle.
The test system of assay [11] is SK-HEP1. Kind of assay: The compound was evaluated for the percent cell cycle fraction when human hepatoma SK hep-1 cells were treated with the compound for 6 hours at a concentration of 4 uM in the S phase of cell cycle.
Assay [12] relates to SK-HEP1. Description: The compound was evaluated for the percent cell cycle fraction when human hepatoma SK hep-1 cells were treated with the compound for 0 hr at a concentration of 4 uM in the G2/M phase of cell cycle.

Turning to `O=C1C=CC(=O)c2c(O)c(Cl)c(Cl)c(O)c21`, the Cell cycle fraction with SK-HEP1 [1] is 13%; in the assay on SK-HEP1 [2] it was 70%; with SK-HEP1 [3], 16%; in the assay listed under Homo sapiens [4], 21%; in the assay with SK-HEP1 [5], 16%; in the assay filed under Homo sapiens [6] it was 26%. Besides, the Cell cycle fraction is on record as 54% in the assay filed under Homo sapiens [7]; 48% with SK-HEP1 [8]; 71% in the assay listed under Homo sapiens [9]; 14% in the assay listed under Homo sapiens [10]; 20% in the assay with SK-HEP1 [11]; 31% in the assay on SK-HEP1 [12].
